Assay results: patent US20060106102A1, “Napththalene derivatives which inhibit the cytokine or biological activity of microphage migration inhibitory factor (mif)” (priority 2002, published 2006)
Values joined by “and” are separate entries in the source; they are usually repeats but may differ in a detail not shown here. Identical values can stand only once. Like-named read-outs stand apart in the source and are kept apart here.

Legend:
[1] = test system: antigen-specific T cell activation (splenic T lymphocytes from mBSA-immunised mice); test: antigen-specific (mBSA) activation of splenic T lymphocytes in vitro, 3H-thymidine incorporation; assay type: cell-based, C57BL6/J mice; details: Mus musculus, T-cell, read-out: EC50 (T cell activation suppressed by 50% compared to vehicle-only-treated cells)
Protocol: After a further seven (7) days mice were killed and spleens collected aseptically into Hanks buffered saline solution (HBSS). A single cell suspension was prepared in Petri dishes by flushing DMEM through the organ using a 26G needle and 2 mL syringe. The resulting cell suspension was centrifuged for 5-7 minutes and supernatant discarded. Erythrocytes were lysed using a solution containing 0.579% NH4Cl, 0.000037% EDTA, and 0.1% NaHCO3 in a 37° C. water bath. Tubes were then filled with DMEM and centrifuged for 5-7 minutes. […] The specific stimulating antigen, mBSA, was then added at 10-50 μg/mL and plates incubated for 30 hours in a 37° C., 5% CO2 incubator. Tritiated^3H-thymidine was then added at a concentration of 0.5 μCi/well for a further 18 hours. Cells were harvested on a Packard cell harvester, and the harvested material added to 750 μL/tube scintillation fluid. Scintillation counts were read on a Wallac beta-emnission counter. […] Further compounds were also tested for their ability to inhibit antigen-specific T cell activation as a marker of the inhibition of the cytokine or biological activity of MIF using this assay.

[2] = test system: murine endotoxic shock model (LPS); test: murine endotoxic shock model, serum cytokines by ELISA; assay type: in vivo; details: mice
Protocol: The activity of 6,7-dihydroxynaphthalene-3-sulfonic acid (compound 6) was studied in the murine endotoxic shock model. This model has been previously shown to be dependent on MIF (35). […] Endotoxaemia was induced by intra-peritoneal injection of lipopolysaccharide (LPS) (15 mg/kg) in 400 μl saline. Mice were treated with a saline solution (control) only, a saline solution and LPS, or LPS and 6,7-dihydroxynaphthalene-2-sulfonic acid (compound 6) at a dose of 15 mg/kg body weight by intra-peritoneal injection at 24 hours, 12 hours and 1 hour before intra-peritoneal LPS injection. After 1.5 or 6 hours mice were humanely killed by CO2 inhalation then neck dislocation. Serum was obtained from blood obtained by cardiac puncture prior to death and measured for cytokines including interleukin 1 (IL-1) and interleukin 6 (IL-6) by ELISA. The production of IL-1 and IL-6 has been previously shown to be dependent on MIF (36).
The effect of compounds was further tested under a variety of conditions in animals exposed to endotoxic shock induced as above by the injection of 15 mg/kg LPS by intraperitoneal injection. In each case, compounds were administered by intraperitoneal injection at a dose of 15 mg/kg. Compound administration was associated with reductions in serum cytokine concentration under a variety of administration regimens.

[3] = test system: LPS-induced IL-1 release from peritoneal macrophages; test: LPS-induced interleukin 1 release from murine peritoneal macrophages, ELISA; assay type: cell-based, C57BL6/J mice
Protocol: C57BL6/J male mice were injected intraperitoneally with 2ml of thioglycollate. Five (5) days later peritoneal macrophages were collected by ravaging the peritoneum of anaesthetized mice with 3 ml of cold Hanks buffered saline solution. Cells from several mice were pooled, washed and re-suspended in DMEM supplemented with 5% FCS. Cells were plated in 96 well plastic tissue culture plates at 1×10^5 cells/well. Cells were treated with compound or vehicle for 1 hour in a 5% CO2 incubator at 37° C. Cells were then treated with LPS (10 ng/ml) and incubated for 24 hours. After 24 hours, 50 μl of supernatant from each well was carefully removed and transferred to ELISA plates. The concentration of interleukin 1 (IL-1 ) was measured by ELISA. The concentration of compound at which LPS-induced cytokine release was suppressed by 50% compared to vehicle-only-treated cells (EC50) was calculated using Prism® software. FIG. 13 and Table 8 provide the data for compound 6 tested in this assay.

[4] = test system: recombinant human macrophage migration inhibitory factor (MIF)-induced proliferation of S112 human dermal fibroblasts; test: MIF-induced proliferation of S112 human dermal fibroblasts, 3H-thymidine incorporation; assay type: cell-based
Protocol: The activity of each compound was studied in a bioassay utilising MIF-induced proliferation of human dermal fibroblasts. S112 human dermal fibroblasts were propagated in RPMI/10% foetal calf serum (FCS). Prior to experimentation, cells were seeded at 10^5 cells/ml in RPMI/0.1% BSA for 18 hours. At time point zero, culture medium was replaced with RPMI/10% FCS and treatments administered. Cells were treated with recombinant human macrophage migration inhibitory factor (MIF) 50 ng/ml (1.353×10^−9 M) and/or the compound at a 1 or 1000 molar ratio to the concentration of MIF. In some experiments the compound was combined with MIF at time point −30 minutes, prior to adding at time point zero. At time point 30 hours, cells were pulsed with […]. At time point 48 hours, cells were harvested using a semi-automated cell harvester. The radioactivity incorporated into DNA was determined by liquid scintillation counting, with results expressed as [^3H] thymidine incorporation. The proliferation of untreated cells was expressed as 100% and the effect of MIF and each compound expressed in relative %.
The activity of compound 5 was studied in a bioassay utilising MIF-induced proliferation of human dermal fibroblasts. S112 human dermal fibroblasts were propagated in RPMI/10% foetal calf serum (FCS). Prior to experimentation, cells were seeded at 10^5 cells/ml in RPMII/0.1% BSA for 18 hours. At time point zero, culture medium was replaced with RPMI/10% FCS and treatments administered. Cells were treated with recombinant human macrophage migration inhibitory factor (MIF) 50 ng/ml and/or compound 5 at a 1-1000 molar ratio to the concentration of MIF. At a time point 30 hours later, cells were pulsed with 1 μCi/well of ^3H-thymidine. At a time point 48 hours after commencement of the experiment, cells were harvested using a semi-automated cell harvester. The radioactivity incorporated into DNA was determined by liquid scintillation counting, with results expressed as [^3H] thymidine incorporation.

## O=S(=O)(O)c1ccc2cc(O)c(O)cc2c1 [Compound 6, 6,7-dihydroxynaphthalene-2-sulfonic acid]
[1]; mBSA 10 μg/ml
  EC50: 21.8 µM
[1]; mBSA 50 μg/ml
  EC50: 104 µM
[2]; compound 15 mg/kg i.p. at −18 h before LPS 15 mg/kg i.p.
  Serum TNF, LPS plus compound: 3970 ± 2565 pg/mL
[2]; compound 15 mg/kg i.p. at −24 h, −1 h before LPS 15 mg/kg i.p.
  Serum IL-6, LPS plus compound: 150 ± 19 ng/mL and 104 ± 11 ng/mL
[2]; compound 15 mg/kg i.p. at −24 h, −12 h, −1 h before LPS 15 mg/kg i.p.
  serum IL-1, LPS plus compound: 257 ± 70 ng/mL
[3]; LPS 10 ng/ml, p<0.02
  inhibition of macrophage IL-1 release, dose-response (FIG. 13): marked and statistically significant inhibition of macrophage IL-1 release
[3]; Mus musculus, Peritoneal macrophage, [LPS] 10 ng/mL, 24 hours, read-out: EC50 (LPS-induced IL-1 release suppressed by 50%)
  EC50: 27 µM
[4]; 0.013-1.3 μM, six separate experiments
  effect on proliferation of S112 cells treated with recombinant human MIF (FIG. 12): marked inhibitory effect
[4]; Homo sapiens, Fibroblast, concentration 0.13 μM, rhMIF 50 ng/ml, S112 cells, read-out: % inhibition of proliferation compared to vehicle plus rhMIF-treated cells
  inhibition at 0.13 µM: 47%
